Legend:
Assay type in all cases: in vivo
Baumwolle = assay: Post-emergent herbicidal action (B.3), crop tolerance; conditions: 500 bis 2000 [g/ha], 15 days after treatment
Description: (§1) Im Gewächshaus wird unmittelbar nach der Einsaat der Versuchspflanzen in Saatschalen die Erdoberfläche mit einer wässrigen Dispersion der Wirkstoffe, erhalten aus einem 25 %igen Emulsionskonzentrat behandelt. Es werden Konzentrationen von 2000-500 g Wirksubstanz/Hektar angewendet. Die Saatschalen werden im Gewächshaus bei 22-25° C und 50-70 % relativer Luftfeuchtigkeit gehalten und der Versuch nach 3 Wochen ausgewertet und die Resultate nach folgender Notenskala ausgewertet. • 1 Pflanze hat nicht gekeimt oder ist eingegangen • 2-3 sehr starke Schäden • 4 starke Schäden • 5 mittlere Schäden, die Pflanzen sind verkümmert • 6 Schäden, die Pflanze kann regenerieren • 7-8 leichte Schäden • 9 normales Wachstum, wie das unbehandelter Pflanzen
(§2) Boniturnoten von 1 bis 4 (insbesondere von 1 bis 3) weisen auf eine gute bis sehr gute Herbizidwirkung hin. Boniturnoten von 6 bis 9 (insbesondere 7 bis 9) weisen auf eine gute Toleranz (insbesondere bei Kulturpflanzen) hin.
(§3) Eine Anzahl Unkräuter, sowohl monokotyle wie dikotyle, werden nach dem Auflaufen (im 4- bis 6-Blattstadium) mit einer wässrigen Wirkstoffdispersion in einer Dosierung von 2000-500 g Wirksubstanz pro Hektar auf die Pflanzen gespritzt und diese bei 24°-26°C und 45-60 % relativer Luftfeuchtigkeit gehalten. 15 Tage nach der Behandlung wird der Versuch nach dem in Beispiel B.2. gegebenen Massstab bewertet.

Soja = assay: as above; conditions: 500 bis 2000 [g/ha], 15 days after treatment
Description: as §1, §2, §3

Amaranthus ret. = assay: Post-emergent herbicidal action, contact herbicide (B.3); conditions: 500 bis 2000 [g/ha], 15 days after treatment
Description: as §1, §2, §3

Lolium perenne = assay: as above; conditions: 500 bis 2000 [g/ha], 15 days after treatment
Description: as §1, §2, §3

Chrysanthe. leuc. = assay: as above; conditions: 500 bis 2000 [g/ha], 15 days after treatment
Description: as §1, §2, §3

Chenopodium Sp. = assay: as above; conditions: 500 bis 2000 [g/ha], 15 days after treatment
Description: as §1, §2, §3

Alopecurus myos. = assay: as above; conditions: 500 bis 2000 [g/ha], 15 days after treatment
Description: as §1, §2, §3

Avena fatua = assay: as above; conditions: 500 bis 2000 [g/ha], 15 days after treatment
Description: as §1, §2, §3

Veronica Sp. = assay: as above; conditions: 500 bis 2000 [g/ha], 15 days after treatment
Description: as §1, §2, §3

Xanthium Sp. = assay: as above; conditions: 500 bis 2000 [g/ha], 15 days after treatment
Description: as §1, §2, §3

Sinapis = assay: as above; conditions: 500 bis 2000 [g/ha], 15 days after treatment
Description: as §1, §2, §3

Galium aparine = assay: as above; conditions: 500 bis 2000 [g/ha], 15 days after treatment
Description: as §1, §2, §3

Digitaria sang. = assay: as above; conditions: 500 bis 2000 [g/ha], 15 days after treatment
Description: as §1, §2, §3

Echinochloa crus galli = assay: as above; conditions: 500 bis 2000 [g/ha], 15 days after treatment
Description: as §1, §2, §3

Stellaria = assay: as above; conditions: 500 bis 2000 [g/ha], 15 days after treatment
Description: as §1, §2, §3

Abutilon = assay: as above; conditions: 500 bis 2000 [g/ha], 15 days after treatment
Description: as §1, §2, §3

Bromus tectorum = assay: as above; conditions: 500 bis 2000 [g/ha], 15 days after treatment
Description: as §1, §2, §3

Solanum nigrum = assay: as above; conditions: 500 bis 2000 [g/ha], 15 days after treatment
Description: as §1, §2, §3

Sorghum halep. = assay: as above; conditions: 500 bis 2000 [g/ha], 15 days after treatment
Description: as §1, §2, §3

Untersaaten in Mais = assay: Pre-post selectivity: growth inhibition of undersown grasses (post-emergent) versus maize (pre-emergent)
Excerpt: Verbindungen der Formel I zeigen in vorteilhafter Weise eine "pre-post-Selektivität" bei verscheidenen Gräsern in Maiskulturen.
Die wuchshemmende Wirkung in Gräsern ist in postemergenter Applikation stark ausgeprägt, während bei gleichzeitiger Preemergenter Applikation Maispflanzen in ihrem Wuchs nur geringfügig gehemmt werden. Derartige "pre-post-Selektivitäten" erlauben somit die Aussaat von Mais in Gräsern. Dabei soll der Zeitpunkt für die Applikation der Aktivsubstanz der Formel so gewählt werden, dass die Aktivsubstanz postemergent für die Gräser ober preemergent für den Mais angewendet wird. In den ersten Wochen ist der Zuwachs der Gräser so stark gehemmt, dass die Maispflanze sich ungehindert entfalten kann.
Eine Mischung von Gräsern (z.B. Poa, Festuca, Lolium, Bromus, Cynosurus) werden in 15 cm - Kunststofftöpfen mit steriler Landerde angesät und im Gewächshaus bei einer Tagestemperatur von 21°C und einer Nachttemperatur von 17°C angezogen. Die Beleuchtungsdauer beträgt 13,5 Stunden/Tag bei einer Lichtintensität von mind. 7000 Lux. Nach dem Ablauf werden die Pflanzen wöchentlich auf ca. 6 cm Höhe zurückgeschnitten. Ca. 42 Tage nach der Saat und 1 Tag nach dem letzten Schnitt erfolgt die Applikation mit 60-500 g Wirkstoff/ha als wässrige Spritzbrühe. Die Wasseraufwandmenge ist ca. 500 I/ha.
20 Tage nach der Behandlung wird der Versuch ausgewertet. Hierbei wird die Höhe des Neuzuwachses gemessen und in % Hemmung zum Durchschnitt der unbehandelten Kontrollen dargestellt. Die nekrotischen Schäden sind in % zur gesamten Blattfläche aufgeführt.
Mais der Sorte Blizzard G188 werden in 15 cm - Kunststofftöpfen mit steriler gesiebter Landerde angesät und im Gewächshaus bei einer Tagestemperatur von 22°C und einer Nachttemperatur von 19°C aufgestellt. Die Beleuchtungsdauer beträgt mindestens 13,5 Stunden/Tag bei einer Lichtintensität von mindestens 7000 Lux. 1 Tag nach der Saat erfolgt die Applikation mit 60-500 g Wirkstoff/ha, in der Regel 25 %ig formuliert und in wässriger Spritzbrühe. Die Wasseraufwandmenge ist ca. 200 I/ha.
16 Tage nach der Behandlung wird der Versuch ausgewertet. […]

SMILES | Toleranz (im Wachstum beeinflusst) (Baumwolle) | Toleranz (im Wachstum beeinflusst) (Soja) | Herbizidwirkung (Amaranthus ret.) | Herbizidwirkung (Lolium perenne) | Herbizidwirkung (Chrysanthe. leuc.) | Herbizidwirkung (Chenopodium Sp.) | Herbizidwirkung (Alopecurus myos.) | Herbizidwirkung (Avena fatua) | Herbizidwirkung (Veronica Sp.) | Herbizidwirkung (Xanthium Sp.) | Herbizidwirkung (Sinapis) | Herbizidwirkung (Galium aparine) | Herbizidwirkung (Digitaria sang.) | Herbizidwirkung (Echinochloa crus galli) | Herbizidwirkung (Stellaria) | Herbizidwirkung (Abutilon) | Herbizidwirkung (Bromus tectorum) | Herbizidwirkung (Solanum nigrum) | Herbizidwirkung (Sorghum halep.) | "pre-post-Selektivität" bei Untersaaten in Mais (Untersaaten in Mais)
CC1CCc2nc(C3=NC(=O)C(C)(C(C)C)N3)c(C(=O)O)cc21 (stereo not drawn) [Verbindung 2.06, 7H-5,6-Dihydro-2-(5-isopropyl-5-methyl-1 H-imidazol-4-on-2-yl)-5-methyl-1-pyrindin-3-carbonsäure] | gute Toleranz (Boniturnoten von 6 bis 9 (insbesondere 7 bis 9) weisen auf eine gute Toleranz (insbesondere bei Kulturpflanzen) hin) | gute Toleranz (Boniturnoten von 6 bis 9 (insbesondere 7 bis 9) weisen auf eine gute Toleranz (insbesondere bei Kulturpflanzen) hin) | gute bis sehr gute Herbizidwirkung (Boniturnoten von 1 bis 4 (insbesondere von 1 bis 3) weisen auf eine gute bis sehr gute Herbizidwirkung hin) | gute bis sehr gute Herbizidwirkung (Boniturnoten von 1 bis 4 (insbesondere von 1 bis 3) weisen auf eine gute bis sehr gute Herbizidwirkung hin) | gute bis sehr gute Herbizidwirkung (Boniturnoten von 1 bis 4 (insbesondere von 1 bis 3) weisen auf eine gute bis sehr gute Herbizidwirkung hin) | gute bis sehr gute Herbizidwirkung (Boniturnoten von 1 bis 4 (insbesondere von 1 bis 3) weisen auf eine gute bis sehr gute Herbizidwirkung hin) | gute bis sehr gute Herbizidwirkung (Boniturnoten von 1 bis 4 (insbesondere von 1 bis 3) weisen auf eine gute bis sehr gute Herbizidwirkung hin) | gute bis sehr gute Herbizidwirkung (Boniturnoten von 1 bis 4 (insbesondere von 1 bis 3) weisen auf eine gute bis sehr gute Herbizidwirkung hin) | gute bis sehr gute Herbizidwirkung (Boniturnoten von 1 bis 4 (insbesondere von 1 bis 3) weisen auf eine gute bis sehr gute Herbizidwirkung hin) | gute bis sehr gute Herbizidwirkung (Boniturnoten von 1 bis 4 (insbesondere von 1 bis 3) weisen auf eine gute bis sehr gute Herbizidwirkung hin) | gute bis sehr gute Herbizidwirkung (Boniturnoten von 1 bis 4 (insbesondere von 1 bis 3) weisen auf eine gute bis sehr gute Herbizidwirkung hin) | gute bis sehr gute Herbizidwirkung (Boniturnoten von 1 bis 4 (insbesondere von 1 bis 3) weisen auf eine gute bis sehr gute Herbizidwirkung hin) | gute bis sehr gute Herbizidwirkung (Boniturnoten von 1 bis 4 (insbesondere von 1 bis 3) weisen auf eine gute bis sehr gute Herbizidwirkung hin) | gute bis sehr gute Herbizidwirkung (Boniturnoten von 1 bis 4 (insbesondere von 1 bis 3) weisen auf eine gute bis sehr gute Herbizidwirkung hin) | gute bis sehr gute Herbizidwirkung (Boniturnoten von 1 bis 4 (insbesondere von 1 bis 3) weisen auf eine gute bis sehr gute Herbizidwirkung hin) | gute bis sehr gute Herbizidwirkung (Boniturnoten von 1 bis 4 (insbesondere von 1 bis 3) weisen auf eine gute bis sehr gute Herbizidwirkung hin) | gute bis sehr gute Herbizidwirkung (Boniturnoten von 1 bis 4 (insbesondere von 1 bis 3) weisen auf eine gute bis sehr gute Herbizidwirkung hin) | gute bis sehr gute Herbizidwirkung (Boniturnoten von 1 bis 4 (insbesondere von 1 bis 3) weisen auf eine gute bis sehr gute Herbizidwirkung hin) | gute bis sehr gute Herbizidwirkung (Boniturnoten von 1 bis 4 (insbesondere von 1 bis 3) weisen auf eine gute bis sehr gute Herbizidwirkung hin) | 
CC(C)C1(C)NC(c2nc3c(cc2C(=O)O)C(C)(C)CCC3)=NC1=O (stereo not drawn) [Verbindung 2.12, 2-(5-Isopropyl-5-methyl-1 H-imidazol-4-on-2-yl)-5,5-dimethyl-5,6,7,8-tetrahydrochinolin-3-carbonsäure] |  |  |  |  |  |  |  |  |  |  |  |  |  |  |  |  |  |  |  | ausgeprägter "pre-post-Selektivität"
CC1CCc2cc3c(nc2C1)C1=NC(C)(C(C)C)C(=O)N1C3=O (stereo not drawn) [Verbindung 3.03, 2,9-Dimethyl-2-isopropyl-7,8,9,10-tetrahydro-3H,5H-imidazo[1',2':1,2]pyrrolo[3,4-b]chinolin-3,5-dion] |  |  |  |  |  |  |  |  |  |  |  |  |  |  |  |  |  |  |  | ausgeprägter "pre-post-Selektivität"

— patent publication EP0327492A1, “Herbicidally and plantgrowth regulatory active quinoline and pyrindine compounds” (CIBA-GEIGY AG, priority 1988, dated 1989)
